Consider 3 molecules from US11129830B2, “PAC-1 combination therapy” (The Board of Trustees of the University of Illinois, priority 2015, dated 2021).

Experiment [1] has as its system panel of nine cell lines of diverse origins and BRAF mutational status. Briefly: Cellular proliferation (SRB) assay, 5-day IC50, panel of nine cell lines. As to conditions: 120 h, read-out: IC50 values (5 day). Format: cell-based. As for the experimental part: (§1) 1000-2000 cells were seeded per well in a 96-well plate and allowed to adhere before DMSO solutions of PAC-1 or vemurafenib were added to each well. Proliferation was assessed by the sulforhodamine B (SRB) assay.

For experiment [2], the system named is A375 cells. The experiment in a line: Cellular proliferation (SRB) assay in A375. Format: cell-based, human. As to conditions: for Emax: A-375, 120 h. As for the experimental part: as §1
The test system of experiment [3] is A375VR cells. Briefly: Cellular proliferation (SRB) assay in vemurafenib-resistant A375VR. Format: cell-based, human. As to conditions: for IC50: 120 h, 5-day. How it is done:
To assess if PAC-1 remains active in a cell line that has acquired resistance to vemurafenib, a vemurafenib-resistant A375VR cell line was generated by growing A375 parental cell line in sequentially higher concentrations of vemurafenib (0.5 μM to 1.0 μM) for 2 months. To determine the mechanism of resistance of A375VR, genes for MEK1/2, NRAS and AKT were sequenced, but no commonly reported mutations that would confer resistance were found (Rizos et al., Clinical Cancer Research 2014; 20:1965-77). Similarly, splice variant of the ^V600EBRAF mRNA was also not observed. Through qPCR, A375VR cells have approximately 3-fold higher levels of MDR1 mRNA compared to A375.
as §1

Experiment [4] deals with PARP-1 cleavage in A375 cells. The experiment in a line: PARP-1 cleavage Western blot in A375. The experiment is classed as cell-based, human. Conditions: PAC-1 or PAC-1a 12 μM, vemurafenib 10 μM; up to 24 h. For orientation: In western blotting, separated proteins are transferred to a membrane and probed.
Method: (§2) Cells and tumor tissues were lysed using RIPA buffer containing phosphatase and protease inhibitor cocktail (Calbiochem). The protein concentration of each sample was determined by the BCA assay (Pierce). Cell lysates containing 20 μg of protein was loaded into each lane of 4-20% gradient gels (BioRad) for SDS-PAGE. Proteins were transferred onto PDVF membrane for Western blot analysis.
Experiment [5] has as its system PARP-1 cleavage in SK-MEL-5 cells. Briefly: PARP-1 cleavage Western blot in SK-MEL-5. Format: cell-based, human. Conditions: PAC-1 12 μM, vemurafenib 10 μM.
Method: as §2
For experiment [6], the system named is PARP-1 cleavage in UACC-62 cells. The experiment in a line: PARP-1 cleavage Western blot in UACC-62. The experiment is classed as cell-based, human. As to conditions: PAC-1 12 μM, vemurafenib 10 μM.
Method: as §2
The test system of experiment [7] is A375 and SK-MEL-5 cells. Briefly: Long-term (up to 30 days) continuous treatment, cell regrowth. The experiment is classed as cell-based, human. Conditions: PAC-1 4 μM or vemurafenib 10 μM. As for the experimental part: We therefore hypothesized that long term treatment with vemurafenib would lead to re-growth of cancer cells, while treatment with PAC-1 should prevent re-growth. To investigate this hypothesis, A375 and SK-MEL-5 cells were plated at low densities and treated continuously with PAC-1 (4 μM) or vemurafenib (10 μM) for up to 30 days. […] However, in wells treated with PAC-1, no regrowth was observed even after 30 days (FIG. 5B). Thus, consistent with the higher Emax value, PAC-1 is able to quantitatively kill cells thereby preventing regrowth.

The test system of experiment [8] is A375 or UACC-62 cells. Briefly: In vitro resistance assay (SRB, 5, 10 and 20 days). The experiment is classed as cell-based, human. Conditions: for cell number compared to the control, after 5 days: vemurafenib 5 μM or 10 μM; for cell death on day 10: A375, alone or with 1 μM PAC-1. How it is done: The next day, vemurafenib (5 or 10 μM) or PAC-1 (1 μM) were treated in six technical replicates for 5, 10 and 20 days. Fresh media and compounds were added every 2-3 days for the duration of the study. At the end of 5, 10 or 20 days, the wells were fixed with 10% cold trichloroacetic acid for 1 h at 4° C. The wells were then washed, allowed to dry and stained with 0.5% SRB dye for 30 min at room temperature. The wells were then washed with 0.1% acetic acid and allowed to dry. At this point, images of the plates were taken with GelDoc XR (BioRad). Finally, 200 μL of 10 mM Tris base (pH >10.4) was added into well and the absorbance at 510 nm were read using SpectraMax Plus (Molecular Devices). The absorbance at 510 nm is plotted against the days post treatment as an indication of cell proliferation over the time course of the experiment.

The test system of experiment [9] is caspase-3/-7 activity in A375 cells. Conditions: PAC-1 12 μM, vemurafenib 10 μM; combination increase as early as 7 h post-treatment.
Method: (§3) 5,000-8,000 cells were plated in 96 well plates and allowed to adhere. […] Plates were then assessed for caspase-3/7 activity via addition of bifunctional lysis and activity buffer (200 mM HEPES, 400 mM NaCl, 40 mM DTT, 0.4 mM EDTA, 1% Triton-X, pH 7.4) with 20 μM of Ac-DEVD-AFC (SEQ ID NO: 20) (Cayman Chemicals) as the fluorogenic substrate (λex=400 nm, λem=505 nm). Plates were pre-incubated at 37° C. at 30 min in the Synergy multi-mode reader (BioTek) then read for 30 min at 3 min intervals. The slopes for each well were calculated. Activity is expresses as normalized to minimal and maximal activity observed within the assay.
Experiment [10] has as its system caspase-3/-7 activity in SK-MEL-5 cells. Conditions: PAC-1 12 μM, vemurafenib 10 μM.
Method: as §3
The subject of experiment [11] is caspase-3/-7 activity in UACC-62 cells. As to conditions: PAC-1 12 μM, vemurafenib 10 μM.
Method: as §3
Experiment [12] relates to caspase-3/-7 activity in A375 and UACC-62 cells. Conditions: 24 h; PAC-1 12 μM, vemurafenib 10 μM, trametinib 100 nM.
Method: (A) Shown is percent apoptotic cell death after 24 h of treatment. […] Activity is expressed as normalized to the positive control. Dashed horizontal lines represent the level of cell death expected from a mere additive effect of the two agents. Values are reported as mean±SEM of at least three experiments.
5,000-8,000 cells were plated in 96 well plates and allowed to adhere. Cells were treated with 1 μM of staurosporine for 24 h or with 13 μM of raptinal (Palchaudhuri et al., Cell Rep 2015; 13:2027-36) for 3 h as positive control, DMSO as negative control and indicated concentrations of PAC-1 and vemurafenib for 0, 2, 4, 7, 10, 12, 16, 20 or 24 h. Plates were then assessed for caspase-3/7 activity via addition of bifunctional lysis and activity buffer (200 mM HEPES, 400 mM NaCl, 40 mM DTT, 0.4 mM EDTA, 1% Triton-X, pH 7.4) with 20 μM of Ac-DEVD-AFC (SEQ ID NO: 20) (Cayman Chemicals) as the fluorogenic substrate (λex=400 nm, λem=505 nm). Plates were pre-incubated at 37° C. at 30 min in the Synergy multi-mode reader (BioTek) then read for 30 min at 3 min intervals. The slopes for each well were calculated. Activity is expresses as normalized to minimal and maximal activity observed within the assay.
In experiment [13] the test system is A375VR xenograft tumors. Conditions: nude mice, 15 days; vemurafenib 10 mg/kg, PAC-1 100 mg/kg.
Method: All animal studies were performed in accordance with UIUC IACUC guidelines (protocol no. 14292). 0.1 mL of A375 or A375VR in 1:1 DMEM:matrigel (Corning) was injected into the right flank of 6-7 (A375) or 5 (A375VR) week old female athymic nude mice (Charles River). In the both models, the mice were randomized into four groups: control, 100 mg/kg PAC-1, 10 mg/kg vemurafenib, and the combination of 100 mg/kg PAC-1 and 10 mg/kg vemurafenib (n=8). Initial tumor volume measurements were taken and dosing was initiated for a period of 15 days. Vemurafenib was formulated as 5% DMSO in 1% methyl cellulose and given twice daily by oral gavage (p.o.). PAC-1 was formulated in 200 mg/mL hydroxypropyl-β-cyclodextrin at pH 5.5 and given by intraperitoneal (i.p.) injection. Tumor length and width measurements were taken three times a week and volume was calculated as 0.52*L*W^2. At the end of the study, the mice were euthanized and tumors were excised. The tumors were weighed and used for Western blot and immunohistochemistry.
Experiment [14] has as its system A375 xenograft tumors. Briefly: A375 subcutaneous mouse xenograft model of melanoma.
Method: In this model, nude mice were inoculated subcutaneously with A375 cells, and after allowing the tumors to grow, mice were randomized based upon tumor volume into four groups [F=0.03<Fcritical(3.01)] and dosed with PAC-1, vemurafenib, or the combination for 15 days.
0.1 mL of A375 or A375VR in 1:1 DMEM:matrigel (Corning) was injected into the right flank of 6-7 (A375) or 5 (A375VR) week old female athymic nude mice (Charles River). In the both models, the mice were randomized into four groups: control, 100 mg/kg PAC-1, 10 mg/kg vemurafenib, and the combination of 100 mg/kg PAC-1 and 10 mg/kg vemurafenib (n=8). Initial tumor volume measurements were taken and dosing was initiated for a period of 15 days. Vemurafenib was formulated as 5% DMSO in 1% methyl cellulose and given twice daily by oral gavage (p.o.). PAC-1 was formulated in 200 mg/mL hydroxypropyl-β-cyclodextrin at pH 5.5 and given by intraperitoneal (i.p.) injection. Tumor length and width measurements were taken three times a week and volume was calculated as 0.52*L*W^2. At the end of the study, the mice were euthanized and tumors were excised. The tumors were weighed and used for Western blot and immunohistochemistry.
Experiment [15] concerns A375VR cells. The experiment in a line: Annexin V/PI apoptosis in A375VR. Format: cell-based, human. Conditions: 24 h; in combination with low concentrations of vemurafenib. As for the experimental part:
FIGS. 13A-C. Effect of the PAC-1 and vemurafenib combination in A375VR cells. (A) Shown is percent apoptotic cell death (assessed by Annexin V/PI staining and flow cytometry) induced after 24 h of treatment. (B) The apoptotic cell death observed in (A) is greater than that predicted by the Bliss independent model. The excess cell death is calculated as [f(observed, apoptotic)−(f(PAC-1, apoptotic)+f(vemurafenib, apoptotic)−f(PAC-1, apoptotic)*f(vemurafenib, apoptotic))]*100%. […] (C) The synergistic effect of PAC-1 and vemurafenib in activating apoptosis in A375VR after 24 h.

In experiment [16] the test system is ERK1/2 phosphorylation in A375 cells. The experiment in a line: ERK1/2 phosphorylation Western blot in A375. The experiment is classed as cell-based, human.
Method: as §2
Experiment [17] concerns ERK1/2 phosphorylation in SK-MEL-5 cells. The experiment in a line: ERK1/2 phosphorylation Western blot in SK-MEL-5. Format: cell-based, human. As to conditions: 24 h; vemurafenib 0.5 μM and 1 μM.
Method: as §2
Experiment [18] deals with ERK1/2 phosphorylation in UACC-62 cells. The experiment in a line: ERK1/2 phosphorylation Western blot in UACC-62. Format: cell-based, human. Conditions: 24 h; vemurafenib 0.5 μM and 1 μM.
Method: as §2
Experiment [19] deals with ERK1/2 phosphorylation in WTBRAF cell lines. The experiment in a line: ERK1/2 phosphorylation Western blot in WTBRAF cell lines. Format: cell-based. As to conditions: 24 h; even at high concentrations (30 μM).
Method: as §2
For experiment [20], the system named is ERK1/2 phosphorylation in A375VR cells. The experiment in a line: ERK1/2 phosphorylation Western blot in A375VR. Format: cell-based, human. Conditions: 2 h; vemurafenib 0.5 or 1 μM.
Method: as §2
Experiment [21] has as its system melanoma patients with the V600E BRAF protein. Conditions: literature; cited from earlier work.

As a reminder, the IC50 is the point on the concentration scale where inhibition reaches its midpoint.

Read-outs that look alike come from different tables or passages of the source.

Turning to `C=CCc1cccc(/C=N/NC(=O)CN2CCN(Cc3ccccc3)CC2)c1O` [PAC-1, 2-(4-benzylpiperazin-1-yl)-N-[(2-hydroxy-3-prop-2-enyl-phenyl)methylideneamino]acetamide], the IC50 in [1] is 1 to 4 µM; in [2] (Homo sapiens, A-375, read-out: IC50 value), 1.2 µM; in [3] (Homo sapiens, A375VR), 2.4 µM. The “Emax (percent cell death induced by high concentrations of compound)” value in experiment [2] (A375 cells, after 5 days) is given as about 100%. For the same molecule, the Emax in experiment [2] (Homo sapiens, read-out: Emax (percent cell death induced by high concentrations of compound), A375 cells, after 5 days) came out at 99.4 ± 0.7%. In addition, the PARP-1 cleavage entry in [4], in [5] and in experiment [6] was “little effect” throughout. Further, the “time of continuous treatment to regrowth of cells” value in [7] was over 30 days. Also, the “cell number compared to the control, after 5 days” value in experiment [8] (A375 and UACC-62, PAC-1 1 μM) is recorded as “significant reduction in cell number”. Moreover, the “difference from the control on day 10” value in experiment [8] (PAC-1 1 μM) was “no observable difference”. For the same molecule, in experiment [9], the caspase-3 activity result is recorded as “negligible increases”. The caspase-3/-7 enzymatic activity result in experiment [10] and in experiment [11] was “little effect” in each case. The caspase-3/-7 activity result in [12] was “little effect”. The “antitumor effect (tumor volume compared to untreated control)” value in experiment [13] is “does not exert any antitumor affect”. For the same molecule, the “reduction in tumor mass and volume compared to untreated control” value in [14] (PAC-1 100 mg/kg once daily i.p., 15 days) was “minimal reduction”.

For the molecule `O=C(CN1CCN(Cc2ccccc2)CC1)N/N=C/c1ccccc1` [PAC-1a], the “proportion of cells undergoing apoptosis” value in [15] is reported as “abolished”.

Consider `CCCS(=O)(=O)Nc1ccc(F)c(C(=O)c2c[nH]c3ncc(-c4ccc(Cl)cc4)cc23)c1F` [vemurafenib], for which the IC50 in experiment [1] was 0.2 to 0.55 µM; in experiment [3] (Homo sapiens, A375VR) it was 1.5 µM. Besides, the “Emax (percent cell death induced by high concentrations of compound)” value in experiment [2] (A375 cells, after 5 days) is about 97%. Moreover, the Emax in experiment [2] (Homo sapiens, A375 cells, after 5 days, read-out: Emax (percent cell death induced by high concentrations of compound)) came out at 96.8 ± 0.3%; in experiment [3] (Homo sapiens, A375VR), 79 ± 6.3%. The “A375 cells insensitive to compound” value in experiment [2] (after 5 days, from Emax) was about 3%. Besides, the “loss of potency compared to parental A375” value in experiment [3] (5-day IC50, A375VR vs A375) is reported as 12 fold. For the same molecule, the “Emax lower than the parental A375 cell line” value in experiment [3] (A375VR vs A375) is reported as 14%. Besides, the PARP-1 cleavage result in experiment [4], in experiment [5] and in experiment [6] was “little effect” throughout. Moreover, the “inhibition of ERK1/2 phosphorylation” value is recorded as “complete inhibition” in [16] (2 h, vemurafenib 0.5 or 1 μM, parental A375) and “not observed” in experiment [19]. Also, the phospho-ERK1/2 bands result in experiment [16] (24 h, vemurafenib 0.5 and 1.0 μM) was “not observed”. Further, the “phosphorylation of ERK1/2” value in experiment [17] and in experiment [18] was “inhibited the phosphorylation of ERK1/2” in each case. Moreover, in experiment [20], the “complete inhibition of ERK1/2 phosphorylation” value is recorded as “not observed”. In addition, the “time of continuous treatment to regrowth of cells” value in experiment [7] was at least 20 days. Moreover, the “cell death on day 10” value in experiment [8] (vemurafenib 5 μM) came to 89.4±1.4%; in experiment [8] (vemurafenib 10 μM) it was 93.2±1.1%. Moreover, the “cell number compared to the control, after 5 days” value in experiment [8] (A375 and UACC-62, PAC-1 1 μM) is reported as “significant reduction in cell number”. Besides, the “regrowth of colonies after 20 days of treatment” value in [8] (A375 and UACC-62, vemurafenib 5 or 10 μM, PAC-1 1 μM) was “significant regrowth of colonies”. The caspase-3 activity result in experiment [9] is given as “negligible increases”. Besides, the caspase-3/-7 enzymatic activity result in experiment [10] and in experiment [11] was “little effect” each time. Further, the caspase-3/-7 activity entry in [12] is recorded as “little effect”. Besides, the “antitumor effect (tumor volume compared to untreated control)” value in [13] was “does not exert any antitumor affect”. Besides, the “extension of progression-free survival” value in experiment [21] is listed as 5.3 months. For the same molecule, the “reduction in tumor volume compared to control” value in experiment [14] (nude mice, dosed 15 days, PAC-1 100 mg/kg once daily i.p., vemurafenib 10 mg/kg twice daily p.o.) was determined as 53%. In addition, the “mice having comparable tumor mass as the control mice” value in experiment [14] (vemurafenib 10 mg/kg twice daily p.o., 15 days) is recorded as 3 out of 8.
